Measurements: publication doi:10.1101/2021.05.27.445942v1 (biorxiv, 2021)

Biological target: T1, CmedPR2 (with CmedORco) (Cnaphalocrocis medinalis, UniProt A0A0U3BFF0)
T1 sequence (A0A0U3BFF0 1-434): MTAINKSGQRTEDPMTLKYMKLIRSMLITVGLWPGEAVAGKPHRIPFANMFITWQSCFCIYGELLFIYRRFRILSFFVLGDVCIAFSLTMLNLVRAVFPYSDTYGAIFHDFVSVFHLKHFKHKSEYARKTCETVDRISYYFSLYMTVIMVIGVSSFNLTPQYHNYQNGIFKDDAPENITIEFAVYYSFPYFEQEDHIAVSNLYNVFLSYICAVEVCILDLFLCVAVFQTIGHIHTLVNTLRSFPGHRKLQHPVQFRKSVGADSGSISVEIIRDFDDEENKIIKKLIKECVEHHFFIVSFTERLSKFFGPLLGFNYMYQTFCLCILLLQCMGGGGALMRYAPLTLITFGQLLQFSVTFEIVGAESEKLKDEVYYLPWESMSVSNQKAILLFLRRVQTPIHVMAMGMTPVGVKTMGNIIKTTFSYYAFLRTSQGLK
T1 sequence (H9XFD5 1-473 partner): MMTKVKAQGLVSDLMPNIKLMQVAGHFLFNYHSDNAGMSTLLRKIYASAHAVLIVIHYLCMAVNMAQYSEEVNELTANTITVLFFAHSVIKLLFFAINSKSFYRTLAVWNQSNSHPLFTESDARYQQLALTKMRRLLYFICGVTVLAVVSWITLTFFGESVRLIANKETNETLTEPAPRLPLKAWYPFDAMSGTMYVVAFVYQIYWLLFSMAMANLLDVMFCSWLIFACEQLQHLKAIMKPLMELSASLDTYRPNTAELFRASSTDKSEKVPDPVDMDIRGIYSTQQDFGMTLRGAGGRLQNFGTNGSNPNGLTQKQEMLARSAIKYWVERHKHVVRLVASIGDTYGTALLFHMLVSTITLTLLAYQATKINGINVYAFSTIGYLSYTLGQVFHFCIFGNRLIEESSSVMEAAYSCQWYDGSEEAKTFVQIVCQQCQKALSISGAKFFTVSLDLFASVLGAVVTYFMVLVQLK
Test: two-electrode voltage clamp, Xenopus oocytes
Type: cell-based
Settings: agonist 10-4 mol/L; co-expressed CmedORco; holding potential -80 mV; pH 7.5

Compound | response current
CCCCCC/C=C\CCCCCCCC=O [Z9-16:Ald] | > 140 nA
CCCC/C=C\CCCCCCCCCCCC=O [Z13-18:Ald, (Z)-13-octadecenal] | 106 ± 6.4 nA
CCCC/C=C\CCCCCCCCCC=O [Z11-16:Ald] | > 140 nA
CCCC/C=C\CCCCCCCCCCCCO [Z13-18:OH, (Z)-13-octadecen-1-ol] | 46 ± 1.6 nA
